{"source": "patent US20050276855A1", "about": "“Composition and method using local application of lipophilic lathyrogens sustained release formulations” (priority 2004, published 2005)", "key": {"esophageal stricture [1]": {"tested_on": "esophageal stricture", "conditions": "young adult rabbits; cited from earlier work"}, "[2]": {"tested_on": "incision skin wound in rats", "experiment": "Breaking strength of incision skin wound in rats after a single local injection", "format": "in vivo", "conditions": "for Breaking strength / Change in % of control / Effect on breaking strength versus non-treated controls: Example II; for Breaking strength: 12 days after wounding, single injection underneath wound line, DPA 5 mg/0.25 ml, hexyl ester 7.5 mg/0.25 ml, Mean +/− SD; for Change in % of control: breaking strength 12 days after wounding; for Effect on breaking strength versus non-treated controls: in saline; for Effect on breaking strength versus non-treated controls / Breaking strength of skin wound, X: 12 days; for Effect on breaking strength of the healing wound: Example III, in polyethylene glycol 600; for Breaking strength of skin wound, X: Example IV, in thermosensitive polymer (TSP), Sprague-Dawley female rats", "protocol": "Young adult rats have the hair clipped in the dorsum midline to make a rectangle having the dimensions of about 4 cm by about 9 cm. A full thickness skin incision in the midline of the dorsum of the rat is made about 8 cm long. The wound is closed with 9 to 10 interrupted sutures.\nVarious treatments are injected in between the sutures, underneath the closed wounds with a 8 cm long gastric needle, inserted at the distal site of the incision wound. After 12 days the animals are terminated, the skin wound is dissected with 2 cm intact skin at both sides. A specially designed multiple razor blade cutter with blades 0.5 cm apart is placed onto the skin, stretched loosely onto a cork lined board and hammered to obtain several (10 to 12) equal width skin strips, having the wound in the middle. Individual skin strips are attached to grips of a tensiometer and breaking strength is determined.\nIn this Example II, Applicants utilized the above-recited test method to evaluate local administration of unmodified lathyrogens and/or chemically modified lathyrogens, administered in a polymeric carrier.\nIn certain embodiments, the polymeric carrier comprised a mixture of polylactic and polyglycolic acid of defined molecular weights and proportion, dissolved in N-methylpyrolidone. This polymer was obtained from Atrix Company (CO) as Atrigel 30 which was supposed to be degraded in the tissues within 30 days. […] The rate of its degradation—hydrolysis, determines the rate of the release of the lathyrogen dispersed therein.\nThe tested lathyrogens, Compound I or derivative thereof, namely D-penicillamine-hexyl ester HCl, i.e. Compound III, wherein R1 is hexyl, was used at the dose of 5 mg/0.25 ml of polymeric carrier (for DPA), or 7.5 mg of Compound III/0.25 ml of polymeric carrier. The formulation was injected after closing the skin wound between the sutures, underneath the wound line. Saline solutions of BAPN and DPA were also administered at the same dose and volume.\nFour rats were used in each group. The data recited in Table II are presented as Mean +/− Standard Deviation, based on 20 to 28 determinations in every group. The testing of the breaking strength of the skin wound strips was done 12 days after inflecting the wound. […]"}, "sclera puncture wound": {"tested_on": "sclera puncture wound", "conditions": "locally injected; cited from earlier work"}, "[3]": {"tested_on": "Schiff base crosslinks of the collagen", "experiment": "Swelling of skin samples in various solutions (collagen crosslink cleavage)", "set-up": "species or system nude mice", "conditions": "for Cleavage of crosslinks once reduced: crosslinks reduced with sodium borohydrate; for Cleavage of non reduced Schiff base crosslinks of collagen: non reduced skin discs", "source_text": "This example documents one of the effects of DPA on the integrity of collagen structure. […] Once the crosslink is reduced (with sodium borohydrate) a stable covalent crosslinks is formed, resistant to any chemical means to break it. The Example also documents that only substances having —SH and —NH2 groups free are effective. Therefore N acetyl cystein is not effective due to the blocking its —NH2 group.\nMethod: Skin of 4 months old nude mice was dissected, spread on a board and with a 0.5 cm diameter punch several discs were obtained. These were kept in a moist chamber to prevent drying. The discs were weighted and immersed in the following solutions for 1 hour incubation: • 1. Phosphate buffered saline (0.1 M, pH 7.3)-control; • 2. PBS with 10 mg sodium borohydrate in 10 ml; • 3. Some discs from group 1 and 2 were further incubated for 1 hour PBS containing 100 mg cystein, or D-penicillamine or N-acetyl cystein; • 4. After 1 hour incubation in the above solutions, the skin samples were placed into 0.45% acetic acid (pH 3.5) for another hour.\nAfter each incubation time the skins samples were blotted on a filter paper and weighted on a analytical balance with the sensitivity to 0.1 mg.\nSwelling in Table 1 is given as mg weight/0.5 cm disc of skin. The data are shown as Mean +/− standard deviation (“SD”).\nIn this Example the swelling capacity was used as an indicator of the structural stability, namely number of crosslinks in the collagen molecules. More crosslinked collagen swells less than when the bonds are cleaved, resuming the structure of “young” collagen."}, "[4]": {"tested_on": "function of filter surgery", "conditions": "systemic administration; cited from earlier work"}, "esophageal stricture [5]": {"tested_on": "esophageal stricture", "conditions": "given systemically, without bougienage; cited from earlier work"}, "lacerated tendons": {"tested_on": "lacerated tendons", "conditions": "systemic administration; cited from earlier work"}, "peritendinous adhesions": {"tested_on": "peritendinous adhesions", "conditions": "1-2-g/day per os, cited from earlier work"}, "[6]": {"tested_on": "scar contracture of intracardiac prosthetic patches", "conditions": "systemic; cited from earlier work"}, "intraoccular pressure": {"tested_on": "intraoccular pressure", "conditions": "topical, cited from earlier work"}, "[7]": {"conditions": "0.5 cm skin discs, 1 hour PBS, 1 hour PBS containing 100 mg substance, then 1 hour 0.45% acetic acid (pH 3.5)"}}, "note": "“Also recorded” adds a separate entry of the source."}
{"molecule": "CC(C)(S)C(N)C(=O)O", "note": "(stereo in doubt) [DPA, D-Penicillamine]", "values": [{"measurement": "Severity of esophageal stricture", "setting": "esophageal stricture [1]", "value": "less severe stricture"}, {"measurement": "Breaking strength", "setting": "[2]", "value": "695 +/− 38 g/0.5 cm"}, {"measurement": "Change in % of control", "setting": "[2]", "value": "−2", "unit": "%"}, {"measurement": "Effect on breaking strength versus non-treated controls", "setting": "[2]", "value": "no differences in the breaking strength"}, {"measurement": "Collagen deposition in adjacent muscle", "setting": "sclera puncture wound", "value": "decreased"}, {"measurement": "Wound contraction after puncturing the sclera", "setting": "sclera puncture wound", "value": "inhibited wound contraction"}, {"measurement": "Swelling of skin samples, Mean", "setting": "[3]; [7]", "value": "84.0 mg weight/0.5 cm disc of skin"}, {"measurement": "Cleavage of crosslinks once reduced", "setting": "[3]", "value": "no effective"}, {"measurement": "Cleavage of non reduced Schiff base crosslinks of collagen", "setting": "[3]", "value": "cleaves the non reduced covalent Schiff base crosslinks; also recorded: effectively cleaving"}, {"measurement": "Effect on the function of filter surgery", "setting": "[4]", "value": "not effective"}]}
{"molecule": "CCCCCCNCCC#N", "note": "[BAPN - lipophilic, hexyl-beta-aminopropionitrile]", "values": [{"measurement": "Effect on breaking strength of the healing wound", "setting": "[2]", "value": "effectiveness"}, {"measurement": "Breaking strength of skin wound, X", "setting": "[2]", "value": 226}]}
{"molecule": "N#CCCN", "note": "[BAPN, Beta-aminopropionitrile]", "values": [{"measurement": "Stricture of the esophageal lumen", "setting": "esophageal stricture [5]", "value": "preventing the stricture of the lumen"}, {"measurement": "Gliding function of lacerated tendons", "setting": "lacerated tendons", "value": "significant improvement in the gliding function"}, {"measurement": "Effect in patients after tenolysis", "setting": "peritendinous adhesions", "value": "beneficial effect"}, {"measurement": "Side toxic effects", "setting": "peritendinous adhesions; study discontinued", "value": "several side toxic effects"}, {"measurement": "Breaking strength", "setting": "[2]", "value": "735 +/− 40 g/0.5 cm"}, {"measurement": "Change in % of control", "setting": "[2]", "value": "+14%"}, {"measurement": "Effect on breaking strength versus non-treated controls", "setting": "[2]", "value": "no differences in the breaking strength"}, {"measurement": "Scar contracture", "setting": "[6]", "value": "inhibition of scar contracture"}]}
{"molecule": "N#CCCN.N#CCCN.O=C(O)/C=C/C(=O)O", "note": "[BAPN-F]", "values": [{"measurement": "Time postoperative pressure was maintained", "setting": "intraoccular pressure; after filtration surgery", "value": "26.4+−11 weeks"}, {"measurement": "Overall success rate", "setting": "intraoccular pressure; difficult cases of glaucoma", "value": 74, "unit": "%"}, {"measurement": "Postoperative intraoccular pressure", "setting": "intraoccular pressure; preoperative pressure 40 mm Hg", "value": 19, "unit": "mm Hg"}, {"measurement": "Collagen deposition in adjacent muscle", "setting": "sclera puncture wound", "value": "decreased"}, {"measurement": "Wound contraction after puncturing the sclera", "setting": "sclera puncture wound", "value": "inhibited wound contraction"}]}
{"molecule": "N[C@@H](CS)C(=O)O", "note": "[CYSH, cystein]", "values": [{"measurement": "Swelling of skin samples, Mean", "setting": "[3]; [7]", "value": "84.0 mg weight/0.5 cm disc of skin"}, {"measurement": "Cleavage of crosslinks once reduced", "setting": "[3]", "value": "no effective"}, {"measurement": "Cleavage of non reduced Schiff base crosslinks of collagen", "setting": "[3]", "value": "effectively cleaving"}]}
{"molecule": "CCCCCCOC(=O)[C@H](N)C(C)(C)S.Cl", "note": "[DPA - lipophilic, D-penicillamine-hexyl ester HCl]", "values": [{"measurement": "Breaking strength of skin wound, X", "setting": "[2]", "value": 321}]}
{"molecule": "CC(=O)N[C@@H](CS)C(=O)O", "note": "[N-acetylCYSH, N-acetyl cystein]", "values": [{"measurement": "Swelling of skin samples, Mean", "setting": "[3]; [7]", "value": "32.2 mg weight/0.5 cm disc of skin"}, {"measurement": "Cleavage of non reduced Schiff base crosslinks of collagen", "setting": "[3]", "value": "not effective"}]}
{"molecule": "[BH4-].[Na+]", "note": "[SBH + control, sodium borohydrate]", "values": [{"measurement": "Swelling of skin samples, Mean", "setting": "[3]; discs first incubated 1 hour in PBS with 10 mg sodium borohydrate in 10 ml (crosslinks reduced), then substance, then 0.45% acetic acid (pH 3.5)", "value": "27.5 mg weight/0.5 cm disc of skin"}]}
{"molecule": "COc1cc2c(c(OC)c1OC)-c1ccc(OC)c(=O)cc1[C@@H](NC(C)=O)CC2", "note": "[colchicine]", "values": [{"measurement": "Severity of esophageal stricture", "setting": "esophageal stricture [1]", "value": "severe stricture"}, {"measurement": "Wound healing", "setting": "esophageal stricture [1]", "value": "delayed wound healing"}]}
{"molecule": "DPA-hexanal acetone adduct", "values": [{"measurement": "Effect on breaking strength of the healing wound", "setting": "[2]", "value": "no effect"}]}
